Source: patent US12662479B2 (Foghorn Therapeutics Inc., priority 2020, dated 2026)
Where a name gives a salt, the structure may show the parent alone.

Assays:
HiBit-BRM fusion protein = molecular target: T1, HiBit-BRM fusion protein (Homo sapiens, UniProt P51531); test: HiBiT-BRM cell-based degradation assay (Nano-Glo HiBiT Lytic Detection, 24 h); details: HeLa cells expressing HiBiT-BRM; for DC50: read-out: BRM HiBit Degradation IC50; for BRM HiBit Degradation Maximum measured: top dose 30 μM
T1 construct: expressed in transfected cells
T1 sequence (P51531 whole entry, the tested form may be a part): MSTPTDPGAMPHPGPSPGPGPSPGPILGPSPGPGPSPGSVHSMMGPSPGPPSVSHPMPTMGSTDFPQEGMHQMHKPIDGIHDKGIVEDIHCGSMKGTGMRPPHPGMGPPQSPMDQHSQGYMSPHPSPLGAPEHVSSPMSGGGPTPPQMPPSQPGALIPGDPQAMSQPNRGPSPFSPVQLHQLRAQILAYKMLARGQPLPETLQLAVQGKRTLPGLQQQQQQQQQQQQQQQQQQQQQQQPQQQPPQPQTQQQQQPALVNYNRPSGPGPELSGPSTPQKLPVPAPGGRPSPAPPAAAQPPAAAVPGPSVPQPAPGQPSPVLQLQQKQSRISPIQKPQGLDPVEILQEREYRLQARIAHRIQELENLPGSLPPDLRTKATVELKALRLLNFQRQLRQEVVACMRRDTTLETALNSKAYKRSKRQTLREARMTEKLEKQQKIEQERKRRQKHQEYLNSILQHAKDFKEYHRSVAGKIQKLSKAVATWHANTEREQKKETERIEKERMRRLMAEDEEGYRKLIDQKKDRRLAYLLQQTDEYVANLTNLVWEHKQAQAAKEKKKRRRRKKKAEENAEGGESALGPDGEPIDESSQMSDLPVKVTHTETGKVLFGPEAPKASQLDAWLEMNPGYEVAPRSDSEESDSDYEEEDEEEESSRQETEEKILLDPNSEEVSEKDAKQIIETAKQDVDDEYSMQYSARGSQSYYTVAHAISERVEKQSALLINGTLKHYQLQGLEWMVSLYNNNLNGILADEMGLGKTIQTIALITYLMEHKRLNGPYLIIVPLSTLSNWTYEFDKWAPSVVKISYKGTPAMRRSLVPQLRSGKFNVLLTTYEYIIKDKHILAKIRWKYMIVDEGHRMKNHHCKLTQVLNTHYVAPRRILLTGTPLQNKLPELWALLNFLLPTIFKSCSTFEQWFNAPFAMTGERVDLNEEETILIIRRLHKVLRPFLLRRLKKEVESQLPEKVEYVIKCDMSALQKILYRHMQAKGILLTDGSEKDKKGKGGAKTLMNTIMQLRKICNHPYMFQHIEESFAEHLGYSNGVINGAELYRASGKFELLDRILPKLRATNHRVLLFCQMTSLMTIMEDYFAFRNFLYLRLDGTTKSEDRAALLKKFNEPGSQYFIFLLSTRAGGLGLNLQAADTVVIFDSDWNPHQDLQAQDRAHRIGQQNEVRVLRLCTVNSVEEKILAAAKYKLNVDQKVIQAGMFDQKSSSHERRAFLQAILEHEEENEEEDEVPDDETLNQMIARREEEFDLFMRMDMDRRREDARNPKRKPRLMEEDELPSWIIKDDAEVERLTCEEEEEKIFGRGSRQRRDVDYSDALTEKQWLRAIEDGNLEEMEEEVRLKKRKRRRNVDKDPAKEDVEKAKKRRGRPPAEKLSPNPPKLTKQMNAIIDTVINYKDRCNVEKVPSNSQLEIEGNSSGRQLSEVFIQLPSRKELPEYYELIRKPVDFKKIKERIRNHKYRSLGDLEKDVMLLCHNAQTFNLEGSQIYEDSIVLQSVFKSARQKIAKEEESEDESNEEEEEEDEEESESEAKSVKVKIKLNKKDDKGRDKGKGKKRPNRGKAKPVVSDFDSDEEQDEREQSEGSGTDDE
How it was run: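 Luminescence from reconstituted NanoBiT luciferase in lysed HeLa HiBiT-BRM cells served as the measure of remaining BRM after 24 h treatment. Compounds were tested from 30 μM final downward in 3-fold steps. DMSO and 2 μM of a standard BRM/BRG1 degrader defined the scale limits.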

[1] = molecular target: T2, HiBit-BRG1 fusion protein (Homo sapiens, UniProt P51532); test: HiBiT-BRG1 cell-based degradation assay (Nano-Glo HiBiT Lytic Detection, 24 h); details: HeLa cells expressing HiBit-BRG1 and LgBit; for DC50: read-out: BRG1 HiBit Degradation IC50; for Dmax: HeLa, top dose 30 μM, read-out: BRG1 HiBit Degradation Maximum measured
T2 construct: expressed in transfected cells
T2 sequence (P51532 whole entry, the tested form may be a part): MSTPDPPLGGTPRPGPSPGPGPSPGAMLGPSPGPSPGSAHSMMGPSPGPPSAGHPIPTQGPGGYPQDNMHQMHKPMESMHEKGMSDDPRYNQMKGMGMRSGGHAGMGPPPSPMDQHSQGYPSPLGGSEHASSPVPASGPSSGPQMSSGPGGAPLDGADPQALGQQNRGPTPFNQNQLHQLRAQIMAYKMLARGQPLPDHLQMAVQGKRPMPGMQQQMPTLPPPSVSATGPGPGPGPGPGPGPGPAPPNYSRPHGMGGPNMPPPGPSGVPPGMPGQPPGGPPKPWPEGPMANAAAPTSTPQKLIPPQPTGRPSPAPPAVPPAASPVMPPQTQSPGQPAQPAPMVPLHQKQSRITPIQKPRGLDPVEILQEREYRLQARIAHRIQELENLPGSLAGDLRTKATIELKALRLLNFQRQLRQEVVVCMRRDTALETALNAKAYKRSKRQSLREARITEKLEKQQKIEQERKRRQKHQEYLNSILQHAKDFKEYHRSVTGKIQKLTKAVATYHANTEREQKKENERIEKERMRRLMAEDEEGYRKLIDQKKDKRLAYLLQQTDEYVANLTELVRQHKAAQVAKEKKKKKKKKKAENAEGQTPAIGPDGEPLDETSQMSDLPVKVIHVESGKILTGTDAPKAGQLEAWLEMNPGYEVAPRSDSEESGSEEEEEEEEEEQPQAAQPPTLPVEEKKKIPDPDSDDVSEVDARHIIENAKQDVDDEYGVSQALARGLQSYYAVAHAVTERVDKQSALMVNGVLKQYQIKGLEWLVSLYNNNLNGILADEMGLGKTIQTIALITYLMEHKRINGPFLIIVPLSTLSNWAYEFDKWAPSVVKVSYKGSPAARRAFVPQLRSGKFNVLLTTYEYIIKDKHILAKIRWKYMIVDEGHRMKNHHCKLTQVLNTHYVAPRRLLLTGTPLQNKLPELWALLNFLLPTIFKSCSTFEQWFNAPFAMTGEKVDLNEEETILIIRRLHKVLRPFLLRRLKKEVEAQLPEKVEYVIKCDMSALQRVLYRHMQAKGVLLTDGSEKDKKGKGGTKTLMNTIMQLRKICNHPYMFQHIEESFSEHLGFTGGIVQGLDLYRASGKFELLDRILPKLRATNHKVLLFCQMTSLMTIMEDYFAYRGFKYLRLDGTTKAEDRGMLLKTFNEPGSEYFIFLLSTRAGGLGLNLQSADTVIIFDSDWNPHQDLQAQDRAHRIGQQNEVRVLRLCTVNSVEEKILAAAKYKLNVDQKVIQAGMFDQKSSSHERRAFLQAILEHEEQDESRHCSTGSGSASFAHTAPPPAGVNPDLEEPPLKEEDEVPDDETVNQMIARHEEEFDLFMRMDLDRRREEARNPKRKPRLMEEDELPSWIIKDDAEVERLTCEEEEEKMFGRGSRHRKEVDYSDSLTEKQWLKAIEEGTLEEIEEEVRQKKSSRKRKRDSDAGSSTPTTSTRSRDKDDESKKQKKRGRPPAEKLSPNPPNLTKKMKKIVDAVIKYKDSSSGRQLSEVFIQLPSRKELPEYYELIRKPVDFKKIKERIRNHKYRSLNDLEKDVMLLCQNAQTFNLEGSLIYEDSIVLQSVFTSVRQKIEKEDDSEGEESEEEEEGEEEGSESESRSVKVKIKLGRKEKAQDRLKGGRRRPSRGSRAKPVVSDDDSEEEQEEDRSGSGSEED
How it was run: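 Stable HeLa line expressing HiBiT-BRG1 and LgBiT, seeded at 5000 cells/well; luminescence read after lytic Nano-Glo HiBiT reagent and 10 min shaking at RT. % degradation normalised between DMSO (high control) and 2 μM reference BRM/BRG1 degrader (low control).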

| Structure (SMILES) | DC50 (HiBit-BRM fusion protein) [µM] | BRM HiBit Degradation Maximum measured (HiBit-BRM fusion protein) | DC50 [1] [µM] | Dmax [1] [%] |
| --- | --- | --- | --- | --- |
| COC(=O)N1CCCC(c2csc(NC(=O)[C@H](CCCCNC(=O)CCCCCCCCCCNc3cccc4c3C(=O)N(C3CCC(=O)NC3=O)C4=O)NC(=O)c3ccn(C(C)(C)C)c3)n2)C1 (stereo partly drawn) [Compound 184, methyl 3-[2-[(2S)-2-[(1-tert-butylpyrrol-3-yl)formamido]-6-(11-[[2-(2,6-dioxopiperidin-3-yl)-1,3-dioxoisoindol-4-yl]amino]undecanamido)hexanamido]-1,3-thiazol-4-yl]piperidine-1-carboxylate] | > 10 | C (‘C’ = Maximum degradation <50%) | > 10 | < 50 |
| CS(=O)(=O)n1ccc(C(=O)NCC(=O)Nc2nc(C3CCCN(C(=O)C4CCN(CCOc5ccc6c(c5)C(=O)N(C5CCC(=O)NC5=O)C6=O)CC4)C3)cs2)c1 (centres unmarked) [Compound 145, N-(4-{1-[1-(2-{[2-(2,6-dioxopiperidin-3-yl)-1,3-dioxo-2,3-dihydro-1H-isoindol-5-yl]oxy}ethyl)piperidine-4-carbonyl]piperidin-3-yl}-1,3-thiazol-2-yl)-2-[(1-methanesulfonyl-1H-pyrrol-3-yl)formamido]acetamide formate] | > 10 | C (‘C’ = Maximum degradation <50%) | > 10 | < 50 |
| CS(=O)(=O)n1ccc(C(=O)NCC(=O)Nc2nc(-c3cccc(-c4cccc(CNC(=O)CCCCOc5cccc6c5C(=O)N(C5CCC(=O)NC5=O)C6=O)c4)c3)cs2)c1 (centres unmarked) [Compound 57, N-(2-((4-(3′-((5-((2-(2,6-dioxopiperidin-3-yl)-1,3-dioxoisoindolin-4-yl)oxy)pentanamido)methyl)-[1,1′-biphenyl]-3-yl)thiazol-2-yl)amino)-2-oxoethyl)-1-(methylsulfonyl)-1H-pyrrole-3-carboxamide] | > 10 | C (‘C’ = Maximum degradation <50%) | > 10 | < 50 |
| CS(=O)(=O)n1ccc(C(=O)N[C@@H](COCc2ccc(CNC(=O)CCCCCCCOc3cccc4c3C(=O)N(C3CCC(=O)NC3=O)C4=O)cc2)C(=O)Nc2nc(-c3ccccc3)cs2)c1 (stereo partly drawn) [Compound 213, 8-[[2-(2,6-dioxopiperidin-3-yl)-1,3-dioxoisoindol-4-yl]oxy]-N-[(4-[[(2S)-2-[(1-methanesulfonylpyrrol-3-yl)formamido]-2-[(4-phenyl-1,3-thiazol-2-yl)carbamoyl]ethoxy]methyl]phenyl)methyl]octanamide] | 0.1 to 1 | B (‘B’ = Maximum degradation ≥50% and ≤75%) | 0.1 to 1 | 50 to 75 |
| Cc1ncsc1-c1ccc(CNC(=O)[C@@H]2C[C@@H](O)CN2C(=O)[C@@H](NC(=O)CN2CC(C(=O)NCc3cccc(-c4cccc(-c5csc(NC(=O)CNC(=O)c6ccn(S(C)(=O)=O)c6)n5)c4)c3)C2)C(C)(C)C)cc1 [Compound 157, (2S,4R)-4-hydroxy-1-[(2S)-2-[2-[3-([[3-(2-[2-[(1-methan-esulfonyl-pyrrol-3-yl)formamido]acetamido]-1,3-thiazol-4-yl)-[1,1-biphenyl]-3-yl]methyl]carbamoyl)azetidin-1-yl]acetamido]-3,3-dimethylbutanoyl]-N-[[4-(4-methyl-1,3-thiazol-5-yl)phenyl]methyl]pyrr-oledine-2-carboxamide] | > 10 | C (‘C’ = Maximum degradation <50%) | > 10 | < 50 |
